# Data: patent publication US6476254B1, “Alkoxylated fatty alcohol dicarboxylic acid esters” (Croda Inc., priority 1998, dated 2002)
# Assays:
# [1] = Skin spread factor (product spread on forearm circle, 15 minutes, FD&C Blue No. 1 staining); assay type: in vivo; details: resulting area divided by initial area after fifteen minute spread; FIG. 1A
# Description: The skin spread factor is determined by applying, for example, 5 microliters of a product to a 3.14 cm diameter circle on the volar surface of the forearm. The product is spread evenly within the circle and allowed to spread for a fifteen minute period. The test site and surrounding area of the forearm is then sprayed with a 1 percent solution of FD&C Blue No. 1. The area not stained by the blue dye indicates the area onto which the product spread. The skin spread factor is obtained by dividing the resulting area by the initial area. In accordance with the present invention, formulations have a skin spread factor of less than about 8, preferably less than about 5.
# [2] = Pigment wetting: viscosity of ester/pigment slurry; assay type: physicochemical; details: for viscosity (pigment wetting): FIG. 1B, dye slurry, 65% ester, 35% pigment, after standing five minutes
# Description: Pigment wetting properties are determined by preparing a dye slurry and measuring viscosity. For example, a slurry can be prepared using an alkoxylated fatty alcohol dicarboxylic acid ester of the present invention mixed with 35 percent mica or any dye. The viscosity of the slurry is determined after allowing the slurry to stand for five minutes. The lower the viscosity, the better the pigment wetting properties of the ester. Desirably, in accordance with the present invention, viscosity of the resulting dye slurry will be below about 20,000 cps, preferably between about 500 and 15,000 cps and most preferably between about 500 and 5,000 cps based on a 65% ester, 35% pigment mixture (measured in weight percent). Viscosity will vary if a different testing mixture is used.
Compound,skin spread factor [1],viscosity (pigment wetting) [2],viscosity ([2]; test mixture not stated at this place)
"CCCCCCCC/C=C\CCCCCCCCCCCC(=O)OCCCCCCCCCCCCCCCCCCCCCCCC [LGE, Lignoceryl Erucate]",relatively low,"> 15,000 cps",–
"Bis (PPG2, PEG10 Myristyl) adipate",2.9,–,"18,000 cps"
Di-PPG-3 Myristyl Ether Adipate [DP3A],about 3.8,about 1200 cps,–

# Now from value to compound:
skin spread factor [1],viscosity (pigment wetting) [2],viscosity ([2]; test mixture not stated at this place),Compound
very high,under 1000 cps,–,"CCCCCCCCCCCCCOC(=O)C(C)(C)C [TDNP, Tridecyl Neopentanoate]"
very low,"~20,000 cps",–,Pentaerythrityl Tetraisostearate [PTIS]
